The source made the active and inactive calls. The calls are words filed in the database; no cut-off is given here.

Assay [1] concerns the target T1, Nuclear factor erythroid 2-related factor 2 (Mus musculus) (UniProt Q60795).
T1 sequence (whole entry): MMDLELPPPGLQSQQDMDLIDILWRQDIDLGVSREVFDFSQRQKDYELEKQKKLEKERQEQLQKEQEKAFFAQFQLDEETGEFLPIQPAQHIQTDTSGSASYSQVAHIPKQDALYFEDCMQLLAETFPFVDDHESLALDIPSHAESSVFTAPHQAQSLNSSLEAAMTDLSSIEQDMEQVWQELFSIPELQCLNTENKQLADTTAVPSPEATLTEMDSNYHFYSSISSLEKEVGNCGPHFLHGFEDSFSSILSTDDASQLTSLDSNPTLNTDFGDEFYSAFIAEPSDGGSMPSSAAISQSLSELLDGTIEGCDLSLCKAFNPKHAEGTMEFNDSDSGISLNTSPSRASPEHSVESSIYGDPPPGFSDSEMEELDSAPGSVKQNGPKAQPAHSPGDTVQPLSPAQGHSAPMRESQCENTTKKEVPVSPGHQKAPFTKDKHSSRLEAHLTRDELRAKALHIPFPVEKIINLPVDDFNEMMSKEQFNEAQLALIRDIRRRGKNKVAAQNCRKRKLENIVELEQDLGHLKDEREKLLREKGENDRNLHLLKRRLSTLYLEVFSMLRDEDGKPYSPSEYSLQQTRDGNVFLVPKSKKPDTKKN
Nature of the assay: Activation of NRF2 in C57BL/6 mouse bone marrow cells assessed as increase in GCLM level exposed to 1% oxygen at 2 uM incubated for 7 hrs by Western blot analysis. The class given is cell-based. As to conditions: Bone marrow cell. (In general: In western blotting, separated proteins are transferred to a membrane and probed.)

For another assay, the system named is Bone marrow cell. Nature of the assay: Upregulation of Nfe2l2 gene expression in C57BL/6 mouse bone marrow cells exposed to 4% oxygen at 2 uM incubated for 4 hrs by qRT-PCR analysis. In kind it is functional, cell-based. Background: Quantitative PCR measures a nucleic acid by following its amplification.
Assay [2] concerns the target T1, Nuclear factor erythroid 2-related factor 2 (Mus musculus). In words: Activation of NRF2 in C57BL/6 mouse bone marrow cells assessed as increase in Hmox1 gene expression exposed to 4% oxygen at 2 uM incubated for 4 hrs by qRT-PCR analysis. In kind it is cell-based. As to conditions: Bone marrow cell.
For assay [3] the target is unchanged. Nature of the assay: Activation of NRF2 in C57BL/6 mouse bone marrow cells exposed to 21% oxygen at 2 uM incubated for 1 hr. The class given is cell-based. As to conditions: Bone marrow cell.
For assay [4] the target is unchanged. Nature of the assay: Activation of NRF2 in C57BL/6 mouse bone marrow cells assessed as increase in Hmox1 gene expression exposed to 1% oxygen at 2 uM incubated for 4 hrs by qRT-PCR analysis. In kind it is cell-based. As to conditions: Bone marrow cell.
For assay [5] the target is unchanged. In words: Activation of NRF2 in C57BL/6 mouse bone marrow cells assessed as increase in Gclm gene expression exposed to 1% oxygen at 2 uM incubated for 4 hrs by qRT-PCR analysis. In kind it is cell-based. To be noted: Bone marrow cell.
Assay [6] has the same target. Nature of the assay: Activation of NRF2 in C57BL/6 mouse bone marrow cells assessed as increase in Gclm gene expression exposed to 4% oxygen at 2 uM incubated for 4 hrs by qRT-PCR analysis. In kind it is cell-based. As to conditions: Bone marrow cell.
For assay [7] the target is unchanged. In words: Activation of NRF2 in C57BL/6 mouse bone marrow cells assessed as nuclear translocation of NRF2 exposed to 1% oxygen at 2 uM incubated for 1 hr by Western blot analysis. The class given is cell-based. To be noted: Bone marrow cell.
For assay [8] the target is unchanged. In words: Activation of NRF2 in C57BL/6 mouse bone marrow cells exposed to 4% oxygen at 2 uM incubated for 1 hr. The class given is cell-based. To be noted: Bone marrow cell.
Assay [9] has the same target. Nature of the assay: Induction of NRF2 stabilization in C57BL/6 mouse bone marrow cells exposed to 4% oxygen at 2 uM incubated for 1 hr. In kind it is cell-based. To be noted: Bone marrow cell.
Assay [10] has the same target. Nature of the assay: Induction of NRF2 stabilization in C57BL/6 mouse bone marrow cells exposed to 1% oxygen at 2 uM incubated for 1 hr. In kind it is cell-based. As to conditions: Bone marrow cell.
For assay [11] the target is unchanged. In words: Activation of NRF2 in C57BL/6 mouse bone marrow cells exposed to 1% oxygen at 2 uM incubated for 1 hr. In kind it is cell-based. To be noted: Bone marrow cell.
For assay [12] the target is unchanged. Nature of the assay: Activation of NRF2 in C57BL/6 mouse bone marrow cells assessed as increase in GCLM level exposed to 21% oxygen at 2 uM incubated for 7 hrs by Western blot analysis. The class given is cell-based. To be noted: Bone marrow cell.
The target is the same in assay [13]. Nature of the assay: Induction of NRF2 stabilization in C57BL/6 mouse bone marrow cells exposed to 21% oxygen at 2 uM incubated for 1 hr. The class given is cell-based. To be noted: Bone marrow cell.
For assay [14] the target is unchanged. Nature of the assay: Activation of NRF2 in C57BL/6 mouse bone marrow cells assessed as fold increase in HO-1 level exposed to hypoxic condition at 2 uM incubated for 4 hrs by Western blot analysis. As to conditions: Bone marrow cell, filed as activator. The class given is cell-based.
Assay [15] has the same target. Nature of the assay: Activation of NRF2 in C57BL/6 mouse bone marrow cells assessed as fold increase in HO-1 level exposed to 1% oxygen at 2 uM incubated for 4 hrs by Western blot analysis relative to control. The class given is cell-based. As to conditions: Bone marrow cell, filed as activator.
Assay [16] has the same target. In words: Activation of NRF2 in C57BL/6 mouse bone marrow cells assessed as increase in HO-1 level exposed to 21% oxygen at 2 uM incubated for 4 hrs by Western blot analysis. In kind it is cell-based. As to conditions: Bone marrow cell, filed as activator.
For assay [17] the target is unchanged. In words: Activation of NRF2 in C57BL/6 mouse bone marrow cells assessed as nuclear translocation of NRF2 exposed to 1% oxygen at 2 uM incubated for 1 hr by IHC analysis. In kind it is cell-based. To be noted: Bone marrow cell, filed as activator.

As for `CCCCCCCCC(CCCCCCCCC(=O)O)[N+](=O)[O-]` (configuration not stated), the result (in assay [1]; in the assay with Bone marrow cell; in assay [2]; in [3]; in assay [4]; in [5]) was inactive. The outcome in [6], in assay [7], in assay [8], in assay [11] and in [12] was inactive. Moreover, the result in assay [9], in assay [10] and in assay [13] was Active.
With `CCCCCCC=C/C=C(\CCCCCCCC(=O)O)[N+](=O)[O-]`, the result (in the assay with Bone marrow cell; in [3]) was inactive. The Activity result in [2] (filed as activator), in [4] (filed as activator), in assay [5] (filed as activator) and in assay [6] (filed as activator) was “Active; Compound Exhibited Upregulation That Was Dependent On Oxygen Levels Or Specific Target Genes” each time. Further, the result in assay [8] (filed as activator), in assay [9], in assay [10], in [11] (filed as activator) and in [13] was Active.
On to `CCCCC/C=C\C/C(=C\CCCCCCCC(=O)O)[N+](=O)[O-]`, for which the outcome in assay [14], in assay [8] (filed as activator), in [9], in assay [10], in assay [12] (filed as activator) and in [13] was Active. In addition, the result (with Bone marrow cell; in assay [3]) was inactive. Further, the Activity entry in assay [2] (filed as activator), in assay [4] (filed as activator), in assay [5] (filed as activator) and in [6] (filed as activator) was “Active; Compound Exhibited Upregulation That Was Dependent On Oxygen Levels Or Specific Target Genes” throughout.
Take `CCCCCCCC/C=C(\CCCCCCCC(=O)O)[N+](=O)[O-]`: the fold change (FC) in [15] was found to be 1.8. Also, the outcome (in assay [1] (filed as activator); in the assay with Bone marrow cell; in assay [2] (filed as activator); in [4] (filed as activator); in assay [5] (filed as activator); in assay [6] (filed as activator)) was Active. In addition, the outcome in [7] (filed as activator), in [16], in assay [9], in assay [10], in [11] (filed as activator) and in assay [12] (filed as activator) was Active. Further, in assay [13], the result was Active. The outcome in [3] was inactive.
Turning to `CCCCCCCC/C(=C\CCCCCCCC(=O)O)[N+](=O)[O-]`, the result in assay [1] (filed as activator), in assay [2] (filed as activator), in assay [4] (filed as activator), in assay [5] (filed as activator), in [6] (filed as activator) and in [7] (filed as activator) was Active. Moreover, the outcome in assay [17], in [16], in [9], in assay [10], in [11] (filed as activator) and in [12] (filed as activator) was Active. In addition, the result in assay [13] was Active. Moreover, the result (with Bone marrow cell; in assay [3]) was inactive.

Values taken from ChEMBL document CHEMBL6109182, “Regio- and Stereoselective Synthesis of Nitro-fatty Acids as NRF2 Pathway Activators Working under Ambient or Hypoxic Conditions” (J Med Chem, 2025).
